Consider six molecules from PMC6720848, “Synthesis of New Quinoline-Piperonal Hybrids as Potential Drugs against Alzheimer’s Disease” (International Journal of Molecular Sciences, 2019).

What all share (experiment): biochemical
The target in assay [1] is T1, EeAChE (AChE from Electrophorus electricus) (Electrophorus electricus, UniProt O42275).
T1 construct: purchased Sigma-Aldrich (São Paulo, Brazil)
The format is biochemical. Conditions: modified Ellman's method, 37 °C, samples 1 to 100 µM, average ± standard deviation of three experiments. As for the experimental part:
(§1) In order to determine the anticholinesterase activity, we used Ellman’s method modified for a 96-wells plate. The velocities of substrate hydrolysis by AChE and BChE as function of sample concentration were evaluated for EeAChE and EqBChE. AChE, BChE and Ellman’s reagent (DTNB) were prepared in phosphate buffer (100 mM, pH 7.4). Acetylthiocholine iodide (ATCI), and butyrylthiocholine iodide (BTCI) were prepared in distilled water. Stock samples (100 mM) were prepared in dimethyl sulphoxide (DMSO) and appropriately diluted in distilled water to the desired concentrations immediately before use. All solutions were kept on ice during the experiment. All experiments were performed at 37 ± 1 °C.
(§2) The mixture was incubated for 10 min. Then, ATCI (0.5 mM) or BTCI (1.0 mM) was added to all wells and the plate was read immediately for 5 min in a spectrophotometer (Spectramax 340PC, Molecular Device®). The spontaneous and sample (100 µM) induced hydrolysis of the substrate were evaluated by replacing enzyme for buffer. […] The solvent (DMSO) was evaluated at the highest concentration (0.2%) used in the experiment. All concentrations refer to final concentrations. The samples were tested in at least 5 concentrations. […] The values of absorbance/min were calculated by the software Softmax Pro 6.4®. Inhibition values were calculated through non-linear regression with the software GraphPadPrism 5 (GraphPad software®, San Diego, CA, USA). […] EeAChE (EC.3.1.1.7), EqBChE (EC3.1.1.8), ATCI, BTCI and DTNB were purchased from Sigma-Aldrich (São Paulo, Brazil).

Assay [2] concerns the target T2, EqBChE (butyrylcholinesterase from equine serum) (Equus caballus, UniProt P81908).
T2 construct: butyrylcholinesterase from equine serum (EqBChE); purchased Sigma-Aldrich (São Paulo, Brazil); host or cells: equine serum
Format: biochemical. Conditions: modified Ellman's method, 37 °C, samples 1 to 100 µM, average ± standard deviation of three experiments. On the procedure: as §1, §2
(Ellman's reagent forms a yellow product with free thiols.)

The target of the next assay is T3, EeAChE (Electrophorus electricus, UniProt O42275).
T3 construct: purchased Sigma-Aldrich (São Paulo, Brazil)
T3 sequence (O42275 24-633): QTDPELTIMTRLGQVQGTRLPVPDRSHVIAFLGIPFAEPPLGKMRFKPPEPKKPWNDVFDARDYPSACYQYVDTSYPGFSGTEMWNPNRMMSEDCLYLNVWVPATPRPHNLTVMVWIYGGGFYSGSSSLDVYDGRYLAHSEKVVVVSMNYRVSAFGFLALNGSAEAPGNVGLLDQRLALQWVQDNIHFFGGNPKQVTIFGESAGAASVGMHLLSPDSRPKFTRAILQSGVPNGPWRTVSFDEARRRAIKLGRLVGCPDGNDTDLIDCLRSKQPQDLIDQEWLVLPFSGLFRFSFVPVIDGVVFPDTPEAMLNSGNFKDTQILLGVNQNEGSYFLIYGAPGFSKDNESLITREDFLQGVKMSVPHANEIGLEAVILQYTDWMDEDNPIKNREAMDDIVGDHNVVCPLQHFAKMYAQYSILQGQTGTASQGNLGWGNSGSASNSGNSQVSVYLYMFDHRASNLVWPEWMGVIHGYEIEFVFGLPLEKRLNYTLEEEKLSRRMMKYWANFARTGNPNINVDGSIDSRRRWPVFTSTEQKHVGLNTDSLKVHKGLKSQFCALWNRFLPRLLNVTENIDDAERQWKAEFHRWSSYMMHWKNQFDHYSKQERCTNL
Conditions: EeAChE 33 nM, ACh 5 mM, final concentration of the inhibitor 10 mM, 25 °C, triplicate; read-out: AChE inhibition (NMR test).

T1 sequence (O42275 24-633): as above
T2 sequence (P81908 whole entry): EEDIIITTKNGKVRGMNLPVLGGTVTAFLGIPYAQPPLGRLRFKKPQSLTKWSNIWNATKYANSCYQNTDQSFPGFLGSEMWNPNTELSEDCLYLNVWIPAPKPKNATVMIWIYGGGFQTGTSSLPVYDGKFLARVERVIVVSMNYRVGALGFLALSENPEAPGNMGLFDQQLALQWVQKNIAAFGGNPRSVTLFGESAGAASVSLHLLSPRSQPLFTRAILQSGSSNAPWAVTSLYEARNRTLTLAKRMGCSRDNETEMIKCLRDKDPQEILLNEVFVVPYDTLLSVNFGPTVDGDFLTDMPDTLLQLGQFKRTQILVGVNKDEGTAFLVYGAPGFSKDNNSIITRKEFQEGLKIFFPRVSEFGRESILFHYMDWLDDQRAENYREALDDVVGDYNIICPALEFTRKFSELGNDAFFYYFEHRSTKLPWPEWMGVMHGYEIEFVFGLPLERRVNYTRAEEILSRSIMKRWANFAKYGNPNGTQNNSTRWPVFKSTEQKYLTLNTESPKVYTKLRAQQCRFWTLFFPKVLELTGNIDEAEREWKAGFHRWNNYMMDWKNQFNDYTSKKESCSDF

Take `CC1(C)CC(=O)c2cc3cc4c(cc3nc2C1)OCO4` [Compound 3, 7,8-Dihydro-7,7-dimethyl-1,3-dioxolo[4,5-b]acridin-9(6h)-one]: inhibition in assay [1] was half-maximal at 51.5 ± 2.47 µM (IC50).
With `O=c1[nH]c(=O)c2cc3cc4c(cc3nc2[nH]1)OCO4` [Compound 6, 1,3-Dioxolo [4,5-g] pirimido [4,5-b] quinoline-7,9 (6H,8H)-dione], in assay [1], the half-inhibitory concentration (IC50) – broadly, the concentration that inhibits the measured activity by half – is 32.1 ± 3.53 µM.
As for `CC1(C)CC(=NNC(=N)N)c2cc3cc4c(cc3nc2C1)OCO4` [Compound 8, Guanylhydrazone of 7,7-Dimethyl-7,8-dihydro-[1,3]dioxolo[4,5-b]acridin-9(6h)-one], the IC50 in assay [1] stood at 8.5 ± 0.39 µM; in assay [2], 15.2 ± 0.75 µM. Further, the inhibition (usually the relative decrease from the control value, in per cent) at 10000 µM on EeAChE was determined as 73.9 ± 6.26%.
With `COC(=O)c1cc2cc3c(cc2nc1C)OCO3` [Compound 4, Methyl 6-Methyl-[1,3]dioxolo[4,5-g]quinone-7-carboxilate], in assay [1], the concentration for half-maximal inhibition (IC50) was more than 100 µM and the “IC50 EeAChE” value is “not able to inhibit”. Besides, the “IC50 EqBChE” value in assay [2] is “not able to inhibit”.
In assay [1], `O=C(O)c1cc2cc3c(cc2[nH]c1=O)OCO3` [Compound 5, Acid 5,6-Diidro-6-oxo-1,3-dioxolo[4,6g] quiniline-7-carboxilic] displayed a half-maximal inhibitory concentration (IC50) of 14.2 ± 1.15 µM.
`CCOC(=O)c1cc2cc3c(cc2[nH]c1=O)OCO3` [Compound 7, Ethyl 5,6-Dehidro-6-oxo-[1,3] dioxolano [4,5-g] quinoline-7-carboxilate] had an IC50 in assay [1] of 62.8 ± 2.02 µM.
